Measurements: ChEMBL document CHEMBL1201862, “PubChem BioAssay data set” (2004)
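Grown in 96-well plates, cells were treated for 48 hours with each compound at five concentrations. Insufficient inhibition: endpoint recorded as highest concentration tested. Abbreviation: GI50, concentration required for 50% inhibition of growth.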 Activity calls are given as the source filed them. No stated cut-off is given here; in the data, active = GI50 up to about 1.1 µM and inactive = higher.

Tests used:
Assay in all cases: inhibition of tumour cell growth, NCI panel, 48 h
U-251 = system: U-251
DU-145 = system: DU-145
SF-539 = system: SF-539
TK-10 = system: TK-10
KM12 = system: KM12
RPMI-8226 = system: RPMI-8226
MDA-N = system: MDA-N
A549 = system: A549
OVCAR-3 = system: OVCAR-3
HCC 2998 = system: HCC 2998
NCI-H23 = system: NCI-H23
ACHN = system: ACHN
SK-MEL-5 = system: SK-MEL-5
SN12C = system: SN12C
EKVX = system: EKVX
MDA-MB-231 = system: MDA-MB-231
OVCAR-4 = system: OVCAR-4
HOP-92 = system: HOP-92
Hs-578T = system: Hs-578T
NCI-H460 = system: NCI-H460

| SMILES | GI50 (U-251) | GI50 (DU-145) | GI50 (SF-539) | GI50 (TK-10) | GI50 (KM12) | GI50 (RPMI-8226) | GI50 (MDA-N) | GI50 (A549) | GI50 (OVCAR-3) | GI50 (HCC 2998) | GI50 (NCI-H23) | GI50 (ACHN) | GI50 (SK-MEL-5) | GI50 (SN12C) | GI50 (EKVX) | GI50 (MDA-MB-231) | GI50 (OVCAR-4) | GI50 (HOP-92) | GI50 (Hs-578T) | GI50 (NCI-H460) |
| --- | --- | --- | --- | --- | --- | --- | --- | --- | --- | --- | --- | --- | --- | --- | --- | --- | --- | --- | --- | --- |
| C=CCN(Cc1ccncc1)C(=O)C(O)(c1ccccc1)c1ccccc1 | 76.2 µM (inactive) | > 100 µM (inactive) | 70.6 µM (inactive) | > 100 µM (inactive) | 35.2 µM (inactive) | 22 µM (inactive) | 45.8 µM (inactive) | 79.3 µM (inactive) | 50.6 µM (inactive) | > 100 µM (inactive) | 54.3 µM (inactive) | > 100 µM (inactive) | 62.8 µM (inactive) | > 100 µM (inactive) | 35.9 µM (inactive) | > 100 µM (inactive) |  |  |  |  |
| O=C1CCCC2=C1CC1=C(CCCC1=O)N2c1ccccc1 | > 100 µM (inactive) |  | > 100 µM (inactive) | > 100 µM (inactive) | > 100 µM (inactive) | > 100 µM (inactive) |  | > 100 µM (inactive) | > 100 µM (inactive) | > 100 µM (inactive) | > 100 µM (inactive) | > 100 µM (inactive) | > 100 µM (inactive) | > 100 µM (inactive) | > 100 µM (inactive) |  | > 100 µM (inactive) | > 100 µM (inactive) | > 100 µM (inactive) | > 100 µM (inactive) |
| Cc1cccc2oc3c(c(=O)c12)CC(O)C(C)(C)O3 (centres undefined) | > 100 µM (inactive) | > 100 µM (inactive) | > 100 µM (inactive) | > 100 µM (inactive) | > 100 µM (inactive) | 74.1 µM (inactive) | > 100 µM (inactive) | > 100 µM (inactive) | 99.1 µM (inactive) | > 100 µM (inactive) | > 100 µM (inactive) | > 100 µM (inactive) | > 100 µM (inactive) | > 100 µM (inactive) | > 100 µM (inactive) |  | > 100 µM (inactive) | > 100 µM (inactive) | > 100 µM (inactive) | > 100 µM (inactive) |
| CCOC(=O)N(Cc1cccs1)c1cc(OC)c(OC)c(OC)c1 | > 100 µM (inactive) | > 100 µM (inactive) |  | > 100 µM (inactive) | 47.5 µM (inactive) | 25.8 µM (inactive) | 28.9 µM (inactive) | 94.6 µM (inactive) | 53.8 µM (inactive) | > 100 µM (inactive) | > 100 µM (inactive) | > 100 µM (inactive) | 41.7 µM (inactive) | > 100 µM (inactive) | > 100 µM (inactive) | 75 µM (inactive) | 32.1 µM (inactive) |  | 86.5 µM (inactive) | 51.1 µM (inactive) |
| ClCCCc1ccccc1C1=NCCc2ccccc21 | 25.8 µM (inactive) | > 100 µM (inactive) | > 100 µM (inactive) | > 100 µM (inactive) | 40.9 µM (inactive) | 3.21 µM (inactive) |  | 54.2 µM (inactive) | > 100 µM (inactive) | 40.3 µM (inactive) | 15.8 µM (inactive) | > 100 µM (inactive) | 9.73 µM (inactive) | 48.4 µM (inactive) | 80.9 µM (inactive) | > 100 µM (inactive) | 51.5 µM (inactive) | 81.1 µM (inactive) | 31.7 µM (inactive) | 43.9 µM (inactive) |
| O=C1C(=O)C(Br)(Br)C(Br)=C1Br | 25.2 µM (inactive) |  | 19 µM (inactive) | 19.4 µM (inactive) | 12.9 µM (inactive) | 22.3 µM (inactive) |  | 37.4 µM (inactive) | 15.5 µM (inactive) | 20.5 µM (inactive) | > 10 µM (inactive) | 15.9 µM (inactive) | 15.4 µM (inactive) | 23.7 µM (inactive) | 25.4 µM (inactive) |  | 22.4 µM (inactive) | 14 µM (inactive) |  | 34 µM (inactive) |
| Nn1c(CCCCCCCCc2nnc(COc3ccc(Cl)cc3Cl)n2N)nnc1COc1ccc(Cl)cc1Cl | 62.4 µM (inactive) | 42.9 µM (inactive) |  | 89.9 µM (inactive) | 40 µM (inactive) | 21.6 µM (inactive) | 62.5 µM (inactive) | 32.7 µM (inactive) |  | 56.6 µM (inactive) | 38 µM (inactive) | 44.9 µM (inactive) | 38.5 µM (inactive) | 22.2 µM (inactive) | 38.3 µM (inactive) | 52.4 µM (inactive) | 46.5 µM (inactive) | 28.4 µM (inactive) |  | 63.8 µM (inactive) |
| O=C(O)CNS(=O)(=O)c1ccc(NC(=O)c2cccc([N+](=O)[O-])c2)cc1 | > 100 µM (inactive) |  | > 100 µM (inactive) | > 100 µM (inactive) | > 100 µM (inactive) | > 100 µM (inactive) |  | > 100 µM (inactive) | > 100 µM (inactive) | > 100 µM (inactive) | > 100 µM (inactive) | > 100 µM (inactive) | > 100 µM (inactive) | > 100 µM (inactive) | > 100 µM (inactive) |  | > 100 µM (inactive) | > 100 µM (inactive) |  | > 100 µM (inactive) |
| CN(C)CCCc1c2ccccc2nc2ccc(Cl)cc12 | 12.2 µM (inactive) | 21.4 µM (inactive) | 16.6 µM (inactive) | 13.9 µM (inactive) | 17.9 µM (inactive) | 21.3 µM (inactive) |  | 13.9 µM (inactive) | 24.8 µM (inactive) |  | 30.3 µM (inactive) | 14.9 µM (inactive) | 14.4 µM (inactive) | 10.3 µM (inactive) | 17 µM (inactive) | 16.6 µM (inactive) | 18.6 µM (inactive) | 9.53 µM (inactive) | 16.5 µM (inactive) | 12.1 µM (inactive) |
| CC(C)(O)c1cc2c(cc1C(C)(C)O)-c1ccccc1-2 | > 100 µM (inactive) | > 100 µM (inactive) | > 100 µM (inactive) | > 100 µM (inactive) | > 100 µM (inactive) | > 100 µM (inactive) |  | > 100 µM (inactive) | > 100 µM (inactive) | > 100 µM (inactive) |  | 85.3 µM (inactive) | > 100 µM (inactive) | > 100 µM (inactive) | 59.7 µM (inactive) | > 100 µM (inactive) | > 100 µM (inactive) | 17.9 µM (inactive) | 29.6 µM (inactive) | > 100 µM (inactive) |
| CCOC(CCCN1CCC2(CC1)C(=O)N(C)CN2c1ccccc1)(OCC)c1ccc(F)cc1 | 12.2 µM (inactive) | 6.87 µM (inactive) | 3.77 µM (inactive) | 7.66 µM (inactive) | 15.3 µM (inactive) | 10.5 µM (inactive) | 11.6 µM (inactive) | 8.65 µM (inactive) | 13.6 µM (inactive) | 8.85 µM (inactive) | 16.6 µM (inactive) | 5.16 µM (inactive) | 3.45 µM (inactive) | 10.3 µM (inactive) | 2.14 µM (inactive) | 14.2 µM (inactive) |  |  |  |  |
| Brc1ccc2c(c1)C1=C(CO2)Cc2ccccc2O1 | 19.1 µM (inactive) | 21.5 µM (inactive) | 18.6 µM (inactive) | 20.4 µM (inactive) | 19 µM (inactive) | 18.2 µM (inactive) | 13.2 µM (inactive) | 21.6 µM (inactive) | 16.2 µM (inactive) | 17.2 µM (inactive) | 16.3 µM (inactive) | 19.2 µM (inactive) | 15 µM (inactive) | 18.8 µM (inactive) | 20.9 µM (inactive) | 16.4 µM (inactive) | 16.8 µM (inactive) | 15.6 µM (inactive) |  |  |
| C=C(CCCCC)CN1CCCC1[C@@](C)(O)CC(=O)OCC (some centres undefined) | > 100 µM (inactive) |  | > 100 µM (inactive) | > 100 µM (inactive) | > 100 µM (inactive) | > 100 µM (inactive) |  | > 100 µM (inactive) | > 100 µM (inactive) | > 100 µM (inactive) | > 100 µM (inactive) | > 100 µM (inactive) | > 100 µM (inactive) | > 100 µM (inactive) | > 100 µM (inactive) |  | > 100 µM (inactive) | > 100 µM (inactive) |  | > 100 µM (inactive) |
| CNC(=O)N1CN(c2ccccc2)C2(CCN(Cc3ccccc3)CC2)C1=O | > 100 µM (inactive) | > 100 µM (inactive) | 34.7 µM (inactive) | 62.5 µM (inactive) | 29.9 µM (inactive) | 43.4 µM (inactive) | 29.2 µM (inactive) | > 100 µM (inactive) | > 100 µM (inactive) | 9.84 µM (inactive) | > 100 µM (inactive) | > 100 µM (inactive) | 56.1 µM (inactive) | > 100 µM (inactive) | 74.6 µM (inactive) | 19.5 µM (inactive) |  |  |  |  |
| CC(=O)OC1CC[C@@]2(C)C(C1)CC(OC(C)=O)[C@@H]1C2CC(OC(C)=O)[C@]2(C)C(C(C)CC=C(c3ccc(Cl)cc3)c3ccc(Cl)cc3)CCC12 (some centres undefined) | 60.5 µM (inactive) |  | 67.3 µM (inactive) | 80.4 µM (inactive) | 64 µM (inactive) | 5.33 µM (inactive) | > 100 µM (inactive) | 64 µM (inactive) |  | 94 µM (inactive) |  | 23.3 µM (inactive) | 55.1 µM (inactive) | > 100 µM (inactive) | 97.1 µM (inactive) | 48 µM (inactive) | 76.6 µM (inactive) |  | 25.9 µM (inactive) | 26.3 µM (inactive) |
| CC(=O)NCCSC(=O)c1ccccc1 | 0.166 µM (active) | 0.199 µM (active) | 0.387 µM (active) | 0.126 µM (active) | 0.449 µM (active) | 0.131 µM (active) |  | 0.155 µM (active) | 0.243 µM (active) |  | 0.0559 µM (active) | < 0.0195 µM (active) | 0.0171 µM (active) | 0.0853 µM (active) | 2.77 µM (inactive) | 1.98 µM (inactive) | 1.38 µM (inactive) | 0.918 µM (active) | 0.479 µM (active) | < 0.033 µM (active) |
